Reference: patent US8017611B2, “Pyridine and pyrazine derivatives -083” (AstraZeneca AB, priority 2007, dated 2011)
Marks after values point to notes of the source that are not given here.

The compounds below were run against T1, recombinant Axl tyrosine kinase (Homo sapiens, UniProt P30530) (assay: In vitro Axl kinase assay (AlphaScreen), Test (a)). Settings: Test (a); read-out: IC50 versus Axl tyrosine kinase.
T1 construct: encompassing amino acids 473 to 894 of Axl; GST (N); made in house; host or cells: SF126 insect cells
T1 sequence (P30530 473-894): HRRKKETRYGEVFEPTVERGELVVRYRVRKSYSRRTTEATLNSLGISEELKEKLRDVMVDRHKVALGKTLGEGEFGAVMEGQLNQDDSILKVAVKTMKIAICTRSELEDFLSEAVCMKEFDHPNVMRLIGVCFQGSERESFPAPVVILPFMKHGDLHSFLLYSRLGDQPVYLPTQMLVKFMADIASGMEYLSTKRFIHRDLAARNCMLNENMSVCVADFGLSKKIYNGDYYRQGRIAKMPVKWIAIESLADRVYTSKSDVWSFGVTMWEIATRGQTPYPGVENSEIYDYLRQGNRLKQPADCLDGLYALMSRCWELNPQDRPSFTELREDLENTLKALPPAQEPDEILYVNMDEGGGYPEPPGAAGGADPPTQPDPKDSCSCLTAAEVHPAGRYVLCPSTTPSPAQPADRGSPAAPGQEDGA
Type: biochemical

Work on `COCc1nn(C2CCN(C(=O)[C@H](C)O)CC2)cc1-c1cnc(N)c(-c2nc3ccccc3o2)c1` [Example 67.1] yielded an IC50 of ~0.7 nM.

Same assay, conditions: test compound at 1 μM; first value quoted

Going from `CN1CCC(N(C)C(=O)c2ccc(-c3cnc(N)c(-c4nc5cccnc5o4)c3)cc2)C1` (stereo not shown) [Example 45A.3] to `CN1CCC(NC(=O)c2ccc(-c3cnc(N)c(-c4nc5cccnc5o4)c3)cc2)CC1` [Example 45A.69], the “% Axl tyrosine kinase inhibition at 1 μM concentration” value (“% Axl tyrosine kinase inhibition” below) falls from 98.0% to 96.7%.

Going from `CN(C)CCNC(=O)c1cccc(-c2cnc(N)c(-c3nc4ncccc4o3)c2)c1` [Example 10A.18] to `Nc1ncc(-c2cccc(C(=O)NC3CC3)c2)cc1-c1nc2ncccc2o1` [Example 10A.6], the “% Axl tyrosine kinase inhibition” value falls from 84.7% to 37.8%.

First: CN1CCC(n2cc(-c3cnc(N)c(-c4nc5ccc(F)c(F)c5o4)c3)cn2)CC1 [Example 41.16]
Second: CN1CCC(n2cc(-c3cnc(N)c(-c4nc5c(F)cc(F)cc5o4)c3)cn2)CC1 [Example 7.6]
The “% Axl tyrosine kinase inhibition” value of the first is lower: 98.3% for the first, 99.9% for the second.

Going from `CC(=O)N1CCC(n2cc(-c3cnc(N)c(-c4nc5ncccc5o4)c3)cn2)CC1` [Example 57.1] to `COC(=O)N1CCC(n2cc(-c3cnc(N)c(-c4nc5ncccc5o4)c3)cn2)CC1` [Example 55.3], the “% Axl tyrosine kinase inhibition” value rises from 98.5% to 99.5%.

Compared with `CN1CCCCC1CCOc1ccc(-c2cnc(N)c(-c3nc4ncccc4o3)c2)cc1` (stereo not shown) [Example 43B.13], `CNCCCOc1ccc(-c2cnc(N)c(-c3nc4ncccc4o3)c2)cc1` [Example 43B.32] is higher in “% Axl tyrosine kinase inhibition” value: 96.8% for the first, 98.6% for the second.

Compared with `Nc1ncc(-c2ccc(C(=O)NCCCN3CC[C@@H](F)C3)cc2)cc1-c1nc2cccnc2o1` [Example 45A.39], `Nc1ncc(-c2ccc(C(=O)NCCCN3CCCC3)cc2)cc1-c1nc2cccnc2o1` [Example 45A.6] is lower in “% Axl tyrosine kinase inhibition” value: 98.4% for the first, 97.4% for the second.

Going from `COc1cc(-c2cnc(N)c(-c3nc4ncccc4o3)c2)ccc1OCCCN1CCN(C)CC1` [Example 43C.14] to `COc1cc(-c2cnc(N)c(-c3nc4ncccc4o3)c2)ccc1OCCN1CCN(C)CC1` [Example 43C.7], the “% Axl tyrosine kinase inhibition” value falls from 99.3% to 99.1%.

Compared with `CN(C)CCCOc1ccc(-c2cnc(N)c(-c3nc4ncccc4o3)c2)cc1` [Example 43B.10], `CCN(CC)CCOc1ccc(-c2cnc(N)c(-c3nc4ncccc4o3)c2)cc1` [Example 43B.3] is higher in “% Axl tyrosine kinase inhibition” value: 98.4% for the first, 99.6% for the second.

Going from `CN1CCC(Cn2cc(-c3cnc(N)c(-c4nc5ccccc5o4)c3)cn2)CC1` [Example 41.6] to `Cc1nn(C2CCN(C)CC2)c(C)c1-c1cnc(N)c(-c2nc3ccccc3o2)c1` [Example 41.17], the “% Axl tyrosine kinase inhibition” value falls from 99.9% to 84.8%.

First: C[C@H](O)C(=O)N1CCC(n2cc(-c3cnc(N)c(-c4nc5cccnc5o4)c3)cn2)CC1 [Example 57.7]
Second: CO[C@H](C)C(=O)N1CCC(n2cc(-c3cnc(N)c(-c4nc5cccnc5o4)c3)cn2)CC1 [Example 59.9]
The “% Axl tyrosine kinase inhibition” value of the first is higher: 99.6% for the first, 99.1% for the second.

First: Nc1ncc(-c2ccc(C(=O)NCCN3CCNCC3)cc2)cc1-c1nc2cccnc2o1 [Example 45A.83]
Second: Nc1ncc(-c2ccc(C(=O)N3CCC4(CCCNC4)CC3)cc2)cc1-c1nc2cccnc2o1 [Example 45A.87]
The “% Axl tyrosine kinase inhibition” value of the first is higher: 98.9% for the first, 77.4% for the second.

Compared with `NC(=O)c1nn(C2CCNCC2)cc1-c1cnc(N)c(-c2nc3ccccc3o2)c1` [Example 62.5], `COCc1nn(C2CCN(C(=O)[C@H](C)O)CC2)cc1-c1cnc(N)c(-c2nc3ccccc3o2)c1` [Example 67.1] is higher in “% Axl tyrosine kinase inhibition” value: 99.5% for the first, 100.0% for the second.

First: COc1cc(-c2cnc(N)c(-c3nc4ncccc4o3)c2)ccc1OCCN1CCCCC1 [Example 43C.8]
Second: COc1cc(-c2cnc(N)c(-c3nc4ncccc4o3)c2)ccc1OCC1CCCN(C)C1 (stereo not shown) [Example 43C.12]
The “% Axl tyrosine kinase inhibition” value of the first is higher: 99.9% for the first, 99.6% for the second.

First: Nc1ncc(-c2cccc(N3CCCC3)c2)nc1-c1nc2ccccc2o1 [Example 20.5]
Second: N#Cc1cccc(-c2cnc(N)c(-c3nc4ccccc4o3)c2)c1 [Example 2.40]
The “% Axl tyrosine kinase inhibition” value of the first is higher: 85.6% for the first, 40.7% for the second.

Compared with `Cc1nn(C2CCN(C)CC2)cc1-c1cnc(N)c(-c2nc3c(C#N)cccc3o2)c1` [Example 41.40], `CN1CCN(C(=O)c2ccc(-c3cnc(N)c(-c4nc5ncccc5o4)c3)cc2)CC1` [Example 45B.2] is lower in “% Axl tyrosine kinase inhibition” value: 99.2% for the first, 96.1% for the second.

Going from `Nc1ncc(-c2ccc(S(=O)(=O)NCCO)cc2)cc1-c1nc2cnccc2o1` [Example 8A.2] to `Nc1ncc(-c2ccc(C(=O)NCCO)cc2)cc1-c1nc2cnccc2o1` [Example 8A.25], the “% Axl tyrosine kinase inhibition” value falls from 99.2% to 98.7%.

Going from `Nc1ncc(-c2cnn(C3CCN(S(=O)(=O)C4CC4)CC3)c2)cc1-c1nc2ncccc2o1` [Example 55.2] to `Nc1ncc(-c2cnn(C3CCNCC3)c2)cc1-c1nc2cccc(F)c2o1` [Example 38.3], the “% Axl tyrosine kinase inhibition” value rises from 98.8% to 100.0%.

Going from `Nc1ncc(-c2ccnc3ccccc23)cc1-c1nc2ccccc2o1` [Example 2.25] to `CS(=O)(=O)Oc1cccc(-c2cnc(N)c(-c3nc4ccccc4o3)c2)c1` [Example 2.52], the “% Axl tyrosine kinase inhibition” value rises from 60.3% to 81.0%.

Going from `Nc1ncc(-c2ccc(OCC#CCN3CCS(=O)(=O)CC3)cc2)cc1-c1nc2ncccc2o1` [Example 43B.23] to `N#Cc1cccc(-c2cnc(N)c(-c3nc4cccnc4o3)c2)c1` [Example 9A.1], the “% Axl tyrosine kinase inhibition” value falls from 95.3% to 89.8%.

In the case of `Nc1ncc(-c2ccc3c(c2)OCO3)cc1-c1nc2ccccc2o1` [Example 2.42], the “% Axl tyrosine kinase inhibition” value is reported as 15.8** %.
`CN1CCN(c2cccc(-c3cnc(N)c(-c4nc5ccccc5o4)c3)c2)CC1` [Example 2.53] was tested, and the “% Axl tyrosine kinase inhibition” value was 4.2**** %.

Same assay, conditions: test compound at 1 μM; first value quoted; read-out: % Axl tyrosine kinase inhibition at 1 μM concentration

First: CN1CCC(n2cc(-c3cnc(N)c(-c4nc5ccccc5o4)n3)cn2)CC1 [Example 18, 3-(1,3-benzoxazol-2-yl)-5-[1-(1-methyl-4-piperidyl)pyrazol-4-yl]pyrazin-2-amine]
Second: CN1CCC(n2cc(-c3cnc(N)c(-c4nc5c(F)cccc5o4)c3)cn2)CC1 [Example 6, 3-(4-Fluoro-1,3-benzoxazol-2-yl)-5-[1-(1-methyl-4-piperidyl)pyrazol-4-yl]pyridin-2-amine]
The inhibition at 1 µM of the first is lower: 99.3% for the first, 99.9% for the second.

Compared with `Nc1ncc(-c2cnn(C3CCNCC3)c2)cc1-c1nc2cnccc2o1` [Example 8, 3-Oxazolo[4,5-c]pyridin-2-yl-5-[1-(4-piperidyl)pyrazol-4-yl]pyridin-2-amine], `Nc1ncc(-c2cnn(C3CCNCC3)c2)cc1-c1nc2ccccc2o1` [Example 2.3, 3-(1,3-Benzoxazol-2-yl)-5-[1-(4-piperidyl)pyrazol-4-yl]pyridin-2-amine] is lower in inhibition at 1 µM: 99.2% for the first, 98.6% for the second.

First: Nc1ncc(-c2cn(C3CCNCC3)nn2)cc1-c1nc2ccccc2o1 [Example 40, 3-(1,3-benzoxazol-2-yl)-5-[1-(4-piperidyl)triazol-4-yl]pyridin-2-amine]
Second: Cc1nn(C2CCNCC2)cc1-c1cnc(N)c(-c2nc3ccccc3o2)n1 [Example 20.20, 3-(1,3-benzoxazol-2-yl)-5-[3-methyl-1-(4-piperidyl)pyrazol-4-yl]pyrazin-2-amine]
The inhibition at 1 µM of the first is higher: 100% for the first, 99.9% for the second.

First: COc1ccc2nc(-c3cc(-c4cnn(C5CCN(C)CC5)c4)cnc3N)oc2c1 [Example 35, 3-(6-methoxy-1,3-benzoxazol-2-yl)-5-[1-(1-methyl-4-piperidyl)pyrazol-4-yl]pyridin-2-amine]
Second: CNC(=O)CN1CCC(n2cc(-c3cnc(N)c(-c4nc5ccccc5o4)c3)c(COC)n2)CC1 [Example 68, 2-[4-[4-[6-amino-5-(1,3-benzoxazol-2-yl)-3-pyridyl]-3-(methoxymethyl)pyrazol-1-yl]-1-piperidyl]-N-methyl-acetamide]
The inhibition at 1 µM of the first is lower: 99.6% for the first, 100% for the second.

Compound `COc1cc(-c2cnc(N)c(-c3nc4ncccc4o3)c2)ccc1OCCN1CCOCC1` [Example 43C.2, 5-[3-methoxy-4-(2-morpholinoethoxy)phenyl]-3-oxazolo[4,5-b]pyridin-2-yl-pyridin-2-amine] has an inhibition at 1 µM of 97.1%.

Same assay, conditions: test compound at 30 μM

`Nc1ncc(-c2ccc3c(c2)OCO3)cc1-c1nc2ccccc2o1` [Example 2.42] was tested, and the “% of Axl tyrosine kinase activity inhibited at a concentration of 30 μM” value was “**the compound disclosed in Example 2.42 inhibited 53.6% of Axl tyrosine kinase activity at a concentration of 30 μM”.
With `CN1CCN(c2cccc(-c3cnc(N)c(-c4nc5ccccc5o4)c3)c2)CC1` [Example 2.53] the “% of Axl tyrosine kinase activity inhibited at a concentration of 30 μM” value was “****the compound disclosed in Example 2.53 inhibited 82% of Axl tyrosine kinase activity at a concentration of 30 μM”.
